From US20170023550A1, “ENGINEERED THREE-DIMENSIONAL BREAST TISSUE, ADIPOSE TISSUE, AND TUMOR DISEASE MODEL” (Organovo, Inc., priority 2014, published 2017) come the findings set out here.

Holding throughout (type): cell-based, human
Experiment [1] has as its system breast cancer cells in two-dimensional cell culture and bioprinted breast cancer tumor models. Kind of experiment: Tamoxifen drug response by ATP luciferase assay, two-dimensional breast cancer cell culture compared to bioprinted breast cancer tumor models. The settings on record: 10 μM tamoxifen for 48 hours; FIG. 20. From the text:
(§1) The breast cancer tumor models included a nodule of human breast cancer cells surrounded by a physiologically-relevant stromal layer, which included human adipocytes differentiated from human mesenchymal stem cells, human mammary fibroblasts, and human endothelial cells. The adipocytes were derived from mesenchymal stem cells which were isolated an exposed to an adipocyte differentiation signal prior to preparation of the bio-ink and bioprinting.
The breast cancer tumor models were exposed to chemotherapy compounds in order to access drug response. Referring to FIG. 20, breast cancer cells grown in two-dimensional cell culture (A) and the bioprinted breast cancer tumor models (B) were treated with media alone, DMSO, or 10 μM tamoxifen for 48 hours and assessed for viability by ATP luciferase assay. For each graph, * indicates p<0.05 for treatment compared to control.

The test system of experiment [2] is bioprinted breast cancer constructs (MCF7/HUVEC cancer node surrounded by NHMF, HUVEC, SPA stroma). Kind of experiment: Construct viability after drug treatment by alamarBlue assay. The settings on record: 10 μM compound for 3 days, followed by 100 μM compound for 24 hours; FIG. 14. For orientation: Alamar Blue is a resazurin reagent that responds to reducing activity.
Description: The stromal compartment of the constructs was comprised of 65% NHMF, 25% HUVEC, and 10% SPA (partially pre-differentiated). The cancer compartment of the constructs was comprised of 75% MCF7, 25% HUVEC. For each compartment, cells were mixed together at the indicated ratio and resuspended in Novogel® 3.0 at a concentration of 150 million cells/ml. Constructs were printed as 3 layered structures with a dimension of 3 mm×3 mm×0.75 mm. Immediately following bioprinting, constructs were stabilized via crosslinking After 2 minutes, the calcium crosslinking solution was aspirated and replaced with culture media. After 2 days in culture, constructs were treated overnight with enzyme dissolved in culture media to remove the Novogel® 3.0. Constructs were then incubated for up to 9 additional days. All compounds were acquired from Sigma-Aldrich and were dissolved in DMSO. Compounds were diluted to a final concentration of 10 μM or 100 μM in media. The final DMSO concentration was 0.1%, which was used for vehicle treatment. Constructs were assessed for metabolic activity by alamarBlue assay (Life Technologies, Carlsbad, Calif.) or CellTiter Glo assay (Promega, Madison, Wis.). Constructs were treated for 24 hours for labeled compound uptake studies, or for 4 days for assessment of metabolic activity.

For experiment [3], the system named is bioprinted breast cancer tumor models (cancer and stromal compartments). Kind of experiment: Apoptosis by TUNEL staining with CK8 and TE7 markers in bioprinted breast cancer tumor model. The settings on record: 100 μM cisplatin for 4 days; FIG. 22.
Description: as §1
Referring to FIG. 22, bioprinted tissues were treated with vehicle (A-C) or 100 μM cisplatin (D-F) for 4 days. The first (A and D) and second (B and E) columns depict tissues assessed for apoptosis by TUNEL staining (green) and markers for cancer cells (CK8, red). The last ([…]) column depicts tissues assessed for apoptosis by TUNEL staining (green) and markers for fibroblasts (TE7, red).

For the compound `CC/C(=C(\c1ccccc1)c1ccc(OCCN(C)C)cc1)c1ccccc1` [tamoxifen], in experiment [1], the “susceptibility to tamoxifen-induced toxicity, two-dimensional cancer cells vs three-dimensional bioprinted constructs (viability by ATP luciferase assay)” value is “more susceptible to tamoxifen-induced toxicity than cells incorporated into three-dimensional bioprinted constructs”.

`N.N.[Cl][Pt][Cl]` [Cisplatin, cisplatin]: the “construct viability relative to media or vehicle controls (alamarBlue)” value in experiment [2] is recorded as “decreased construct viability”. The “apoptosis by TUNEL staining, stromal compartment vs cancer compartment” value in experiment [3] is recorded as “induces greater apoptosis in the stromal compartment of bioprinted tissues than in the cancer compartment”.

Take `CC(=O)O[C@H]1C(=O)[C@@]2(C)[C@H]([C@H](OC(=O)c3ccccc3)[C@]3(O)C[C@H](OC(=O)[C@H](O)[C@@H](NC(=O)c4ccccc4)c4ccccc4)C(C)=C1C3(C)C)[C@]1(OC(C)=O)CO[C@@H]1C[C@@H]2O` [paclitaxel]: the “construct viability relative to media or vehicle controls (alamarBlue)” value in experiment [2] is “decreased construct viability”.
